Experiment: Release of doxorubicin from OPA215 vesicles, dialysis cassette in PBS, 485 nm absorption
Assay type: physicochemical
Conditions: 37° C., within 2 hours
Description: The Dox-loaded vesicles were centrifuged at 40° C. to remove excess free Dox and resuspended into a 0.320 osM PBS solution at ° C. Then, 3 ml of the aforementioned solution was injected into a dialysis cassette (molecular weight cut-off 3000 g mol^−1), and dialyzed against the PBS solution at 37° C. for 6 hours to ensure complete removal of any free Dox outside of the vesicles. After the initial aliquot was taken, the cassette was immersed in a 300 ml PBS solution at 37° and 27° C., respectively, for monitoring the 485 nm absorption peak of Dox using UV-vis spectrometry. At time intervals, a 3 ml aliquot of the PBS solution was sampled from the external solution of the dialysis cassette.
To study thermally triggered release of Dox from the OPA215 vesicles in PBS solutions, vesicles and control samples were entrapped in dialysis cassettes and sampled in external PBS solutions for the 485 nm absorption peak of Dox at different time intervals (FIG. 9).

loss of Dox during dialysis: > 70%
Structure (SMILES): COc1cccc2c1C(=O)c1c(O)c3c(c(O)c1C2=O)C[C@@](O)(C(=O)CO)C[C@@H]3O[C@H]1C[C@H](N)[C@H](O)[C@H](C)O1 [free Dox, Doxorubicin]

— patent publication US20090220614A1, “Thermo-Responsive Block Co-Polymers, and Use Thereof” (The Trustees of the University of Pennsylvania, priority 2005, published 2009)
